Values quoted from earlier work, collected in patent US10736868B2, “Compositions comprising rumenic acid-rich conjugated linoleic acid for brain health” (STEPAN SPECIALTY PRODUCTS, LLC, priority 2016, dated 2020).
Read-outs that look alike come from different tables or passages of the source. Values belong to the compound of their own block, whether it stands above or below them.

Tests used:
[1] = test system: allergic responses mediated by inflammation; conditions: 8 weeks; young men and women with birch pollen allergy
[2] = molecular target: T1, PPARγ (Homo sapiens, UniProt P37231); conditions: human epithelial cells
T1 construct: host or cells: human epithelial cells
T1 sequence (P37231 1-505): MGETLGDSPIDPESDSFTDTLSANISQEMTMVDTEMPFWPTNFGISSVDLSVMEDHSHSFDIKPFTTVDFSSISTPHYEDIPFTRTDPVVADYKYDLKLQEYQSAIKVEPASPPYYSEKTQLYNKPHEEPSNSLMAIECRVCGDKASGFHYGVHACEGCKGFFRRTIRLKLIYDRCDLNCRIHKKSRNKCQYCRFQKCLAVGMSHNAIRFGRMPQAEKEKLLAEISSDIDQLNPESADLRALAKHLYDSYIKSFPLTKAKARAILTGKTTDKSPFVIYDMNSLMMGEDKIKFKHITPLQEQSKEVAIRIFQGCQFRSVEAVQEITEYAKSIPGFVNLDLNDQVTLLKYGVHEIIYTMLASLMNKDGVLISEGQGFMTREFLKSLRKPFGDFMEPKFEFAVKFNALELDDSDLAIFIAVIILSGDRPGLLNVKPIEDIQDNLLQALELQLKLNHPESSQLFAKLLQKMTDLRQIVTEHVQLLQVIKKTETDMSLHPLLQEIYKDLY

[3] = molecular target: T2, PPARγ (Mus musculus, UniProt P37238); conditions: mouse macrophage cells
T2 construct: host or cells: mouse macrophage cells
T2 sequence (P37238 1-505): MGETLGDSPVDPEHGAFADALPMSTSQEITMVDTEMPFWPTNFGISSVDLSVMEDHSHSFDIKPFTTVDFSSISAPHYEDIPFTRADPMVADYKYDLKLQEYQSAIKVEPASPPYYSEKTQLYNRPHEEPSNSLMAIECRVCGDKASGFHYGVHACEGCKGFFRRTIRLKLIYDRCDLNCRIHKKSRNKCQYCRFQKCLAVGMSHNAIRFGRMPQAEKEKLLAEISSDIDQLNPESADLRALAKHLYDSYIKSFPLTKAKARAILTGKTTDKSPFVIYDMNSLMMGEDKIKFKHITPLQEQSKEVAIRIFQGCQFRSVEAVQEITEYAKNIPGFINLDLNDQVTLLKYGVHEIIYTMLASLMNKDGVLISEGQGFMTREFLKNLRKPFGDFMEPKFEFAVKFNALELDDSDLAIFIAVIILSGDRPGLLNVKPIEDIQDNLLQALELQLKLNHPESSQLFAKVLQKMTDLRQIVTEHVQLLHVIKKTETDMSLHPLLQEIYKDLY

[4] = test system: cognitive function; conditions: hypertensive older adults
[5] = test system: cognitive function; conditions: hypertensive older adults; remark: listed apart in the source

- inflammatory responses via activation of PPARγ [2]: reduced
- PPARγ activation [3]: activated
Structure (SMILES): CCCCCC/C=C/C=C\CCCCCCCC(=O)O [RA, cis-9, trans-11 linoleic acid]
- allergic responses mediated by inflammation [1]: reduced

Structure (SMILES): CCCCC(=O)N(Cc1ccc(-c2ccccc2-c2nnn[nH]2)cc1)[C@H](C(=O)O)C(C)C [valsartan]
- identification, verbal fluency, or word list recognition [4]: did not influence
- word list memory and recall [4]: improved

Structure (SMILES): CCCCc1nc(Cl)c(CO)n1Cc1ccc(-c2ccccc2-c2nn[nH]n2)cc1 [losartan]
- verbal fluency [5]: not
- word list memory and recall [5]: improved
